Reference: patent publication US6391890B1, “Heterocyclic compounds” (Novo Nordisk A/S, priority 1997, dated 2002)
Structures can show the parent of a compound that is named as a salt.

Experiments:
[1] = test system: histamine induced blood glucose rise; assay: Histamine induced hyperglycemia in mice; assay type: in vivo; conditions: 1.0 mg/kg ip 30 min before histamine icv, male NMRI mice, blood glucose at 40 min
Description: II. Histamine Induced Hyperglycemia in Mice
Conscious unfasted 25 g male NMRI mice are administered histamine chloride (90 nmol) icv according to the method of Nishibori et al. (J. Pharmacol. Exp. Therap. 241, 582-286,1987). Blood glucose is determined at time 0 and 40 min after the histamine injection. Test compounds are administered at 1.0 mg/kg ip 30 min before the histamine injection, and % inhibition refers to the capacity of the compounds to inhibit the histamine induced blood glucose rise.

[2] = test system: histamine induced paw oedema; assay: Histamine induced paw oedema (rat, water plethysmography); assay type: in vivo; conditions: 1.0 mg/kg intraperitoneally, male Sprague-Dawley rats, paw swelling 20 minutes after histamine
Description: I. Histamine Induced Paw Oedema The rat histamine paw oedema test was performed essentially as described by Amann et al. (Europ. J. Pharmacol. 279, 227-231, 1995). In brief 250-300 g male Sprague-Dawley rats were anaesthetized with pentobarbital sodium, and placed on a 32 degree heated table. Ten minutes later histamine (50 micoliter, 3 mg/ml) was injected in the right hind paw and 20 minutes hereafter the paw swelling was determined by water plethysmography (Ugo Basile). Test compounds were administered intraperitoneally at 15 minutes before the anaesthetics.

Compound	Inhibition of histamine induced hyperglycemia, % inhibition [1] [%]	Inhibition of histamine induced paw oedema, % inhibition [2] [%]	melting point
Cl.O=C(O)CCN1CCC(=C2c3ccccc3CCc3ccccc32)CC1 [Example 10, 3-(4-(10,11-Dihydro-5H-dibenzo[a,d]cyclohepten-5-ylidene)-1-piperidine)propionic acid hydrochloride]	69	33	–
Cl.O=C(O)CCN1CCN(C2c3ccccc3CCc3ccccc32)CC1 [Example 2, 3-(4-(10,11-Dihydro-5H-dibenzo[a,d]cyclohepten-5-yl)piperazin-1-yl)propionic acid hydrochloride]	–	44	–
Cl.O=C(O)CN1CCC(=C2c3ccccc3CSc3ccccc32)CC1	–	–	170 to 175 °C
Cl.O=C(O)CCN1CCC(=C2c3ccccc3CSc3ccccc32)CC1	–	–	176 to 186 °C (dec.)
O=C(O)C1CCCN(CCCN2CCC(=C3c4ccccc4CSc4ccccc43)CC2)C1 (stereo not shown) (as salt: hydrochloride)	–	–	245 to 255 °C (dec.)
O=C(O)[C@@H]1CCCN(CCN2CCC(=C3c4ccccc4CSc4ccccc43)CC2)C1 (as salt: hydrochloride)	–	–	127 to 130 °C
